Results reported in ChEMBL document CHEMBL1201862, “PubChem BioAssay data set” (2004).
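Five compound concentrations were applied to cells in 96-well plates for 48 hours; endpoints were derived by simple linear interpolation of the resulting dose-response curve. GI50 marks 50% less growth.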 Calls of active or inactive are those of the source. Cut-off read from the data, not from the text of the source: active = GI50 up to about 1.1 µM and inactive = higher.

Assays:
Experiment in all cases: growth of human tumour cells (NCI), 48 h
EKVX = system: EKVX
DU-145 = system: DU-145
CAKI-1 = system: CAKI-1
HCT-116 = system: HCT-116
Hs-578T = system: Hs-578T
OVCAR-8 = system: OVCAR-8
SK-OV-3 = system: SK-OV-3
SK-MEL-5 = system: SK-MEL-5
A549 = system: A549
A498 = system: A498
K562 = system: K562
SK-MEL-28 = system: SK-MEL-28
786-0 = system: 786-0
PC-3 = system: PC-3
KM12 = system: KM12
TK-10 = system: TK-10
MOLT-4 = system: MOLT-4
HOP-62 = system: HOP-62
OVCAR-3 = system: OVCAR-3
NCI-H522 = system: NCI-H522
ACHN = system: ACHN
MDA-MB-435 = system: MDA-MB-435
IGROV-1 = system: IGROV-1
OVCAR-4 = system: OVCAR-4
SR = system: SR
SNB-19 = system: SNB-19
MDA-MB-231 = system: MDA-MB-231
SNB-75 = system: SNB-75
HT-29 = system: HT-29
Malme-3M = system: Malme-3M
NCI-H460 = system: NCI-H460
OVCAR-5 = system: OVCAR-5
HOP-92 = system: HOP-92
UO-31 = system: UO-31
MDA-N = system: MDA-N
SF-539 = system: SF-539
BT-549 = system: BT-549
COLO 205 = system: COLO 205
SF-268 = system: SF-268
HL-60 = system: HL-60
M14 = system: M14
HCC 2998 = system: HCC 2998
MCF7 = system: MCF7
SK-MEL-2 = system: SK-MEL-2
NCI/ADR-RES = system: NCI/ADR-RES
SF-295 = system: SF-295
SN12C = system: SN12C
UACC-62 = system: UACC-62
NCI-H23 = system: NCI-H23
CCRF-CEM = system: CCRF-CEM
U-251 = system: U-251
HCT-15 = system: HCT-15
UACC-257 = system: UACC-257
RXF 393 = system: RXF 393
SW-620 = system: SW-620
T47D = system: T47D
NCI-H226 = system: NCI-H226
RPMI-8226 = system: RPMI-8226
LOX IMVI = system: LOX IMVI

COc1ccc(C2(CC(C)O)SCCCS2)cc1 (stereo unspecified)
GI50 (EKVX): > 100 µM (inactive)
GI50 (DU-145): > 100 µM (inactive)
GI50 (CAKI-1): > 100 µM (inactive)
GI50 (HCT-116): > 100 µM (inactive)
GI50 (Hs-578T): > 100 µM (inactive)
GI50 (OVCAR-8): > 100 µM (inactive)
GI50 (SK-OV-3): > 100 µM (inactive)
GI50 (SK-MEL-5): > 100 µM (inactive)
GI50 (A549): > 100 µM (inactive)
GI50 (A498): > 100 µM (inactive)
GI50 (K562): > 100 µM (inactive)
GI50 (SK-MEL-28): > 100 µM (inactive)
GI50 (786-0): > 100 µM (inactive)
GI50 (PC-3): 92.7 µM (inactive)
GI50 (KM12): > 100 µM (inactive)
GI50 (TK-10): > 100 µM (inactive)
GI50 (MOLT-4): 42 µM (inactive)
GI50 (HOP-62): > 100 µM (inactive)
GI50 (OVCAR-3): > 100 µM (inactive)
GI50 (NCI-H522): > 100 µM (inactive)
GI50 (ACHN): > 100 µM (inactive)
GI50 (MDA-MB-435): > 100 µM (inactive)
GI50 (IGROV-1): > 100 µM (inactive)
GI50 (OVCAR-4): > 100 µM (inactive)
GI50 (SR): > 100 µM (inactive)
GI50 (SNB-19): > 100 µM (inactive)
GI50 (MDA-MB-231): > 100 µM (inactive)
GI50 (SNB-75): > 100 µM (inactive)
GI50 (HT-29): > 100 µM (inactive)
GI50 (Malme-3M): > 100 µM (inactive)
GI50 (NCI-H460): > 100 µM (inactive)
GI50 (OVCAR-5): > 100 µM (inactive)
GI50 (HOP-92): > 100 µM (inactive)
GI50 (UO-31): > 100 µM (inactive)
GI50 (MDA-N): > 100 µM (inactive)
GI50 (SF-539): > 100 µM (inactive)
GI50 (BT-549): > 100 µM (inactive)
GI50 (COLO 205): > 100 µM (inactive)
GI50 (SF-268): > 100 µM (inactive)
GI50 (HL-60): 37.2 µM (inactive)
GI50 (M14): > 100 µM (inactive)
GI50 (HCC 2998): > 100 µM (inactive)
GI50 (MCF7): > 100 µM (inactive)
GI50 (SK-MEL-2): > 100 µM (inactive)
GI50 (NCI/ADR-RES): > 100 µM (inactive)
GI50 (SF-295): > 100 µM (inactive)
GI50 (SN12C): > 100 µM (inactive)
GI50 (UACC-62): > 100 µM (inactive)
GI50 (NCI-H23): > 100 µM (inactive)
GI50 (CCRF-CEM): 63.1 µM (inactive)
GI50 (U-251): > 100 µM (inactive)
GI50 (HCT-15): > 100 µM
GI50 (UACC-257): > 100 µM (inactive)
GI50 (RXF 393): > 100 µM (inactive)
GI50 (SW-620): > 100 µM (inactive)
GI50 (T47D): > 100 µM (inactive)
GI50 (NCI-H226): > 100 µM (inactive)
GI50 (RPMI-8226): > 100 µM (inactive)

O=S(=O)(N=S(c1ccc(Cl)cc1)c1ccc(Cl)cc1)c1ccccc1
GI50 (EKVX): > 100 µM (inactive)
GI50 (DU-145): > 100 µM (inactive)
GI50 (CAKI-1): > 100 µM (inactive)
GI50 (HCT-116): 59.3 µM (inactive)
GI50 (Hs-578T): 56.9 µM (inactive)
GI50 (OVCAR-8): > 100 µM (inactive)
GI50 (SK-OV-3): > 100 µM (inactive)
GI50 (SK-MEL-5): 71 µM (inactive)
GI50 (A549): 74.5 µM (inactive)
GI50 (A498): 19.7 µM (inactive)
GI50 (K562): 46.8 µM (inactive)
GI50 (SK-MEL-28): > 100 µM (inactive)
GI50 (786-0): > 100 µM (inactive)
GI50 (PC-3): 43.6 µM (inactive)
GI50 (KM12): 96.6 µM (inactive)
GI50 (TK-10): > 100 µM (inactive)
GI50 (MOLT-4): 33.8 µM (inactive)
GI50 (HOP-62): > 100 µM (inactive)
GI50 (NCI-H522): 70.3 µM (inactive)
GI50 (ACHN): > 100 µM (inactive)
GI50 (MDA-MB-435): 37.9 µM (inactive)
GI50 (IGROV-1): > 100 µM (inactive)
GI50 (LOX IMVI): > 100 µM (inactive)
GI50 (OVCAR-4): 58.5 µM (inactive)
GI50 (SR): 37.5 µM (inactive)
GI50 (SNB-19): > 100 µM (inactive)
GI50 (MDA-MB-231): > 100 µM (inactive)
GI50 (SNB-75): > 100 µM (inactive)
GI50 (HT-29): 88.7 µM (inactive)
GI50 (Malme-3M): > 100 µM (inactive)
GI50 (NCI-H460): 88.7 µM (inactive)
GI50 (OVCAR-5): > 100 µM (inactive)
GI50 (HOP-92): > 100 µM (inactive)
GI50 (UO-31): 45.1 µM (inactive)
GI50 (MDA-N): 40.7 µM (inactive)
GI50 (SF-539): > 100 µM (inactive)
GI50 (BT-549): > 100 µM (inactive)
GI50 (COLO 205): > 100 µM (inactive)
GI50 (SF-268): > 100 µM (inactive)
GI50 (HL-60): 27.5 µM (inactive)
GI50 (M14): > 100 µM (inactive)
GI50 (HCC 2998): > 100 µM (inactive)
GI50 (MCF7): 50.9 µM (inactive)
GI50 (SK-MEL-2): > 100 µM (inactive)
GI50 (NCI/ADR-RES): 63 µM (inactive)
GI50 (SF-295): 68.5 µM (inactive)
GI50 (SN12C): 9.95 µM (inactive)
GI50 (UACC-62): 60.3 µM (inactive)
GI50 (NCI-H23): 63.4 µM (inactive)
GI50 (CCRF-CEM): 59.4 µM (inactive)
GI50 (U-251): > 100 µM (inactive)
GI50 (HCT-15): 65.8 µM
GI50 (UACC-257): 77.4 µM (inactive)
GI50 (RXF 393): 65.3 µM (inactive)
GI50 (SW-620): > 100 µM (inactive)
GI50 (T47D): 47.5 µM (inactive)
GI50 (NCI-H226): > 100 µM (inactive)
GI50 (RPMI-8226): 40.4 µM (inactive)
